The NIST ThermoML archive (doi:10.1021/je2007549)
± gives the expanded uncertainty stated by the source.

Assay: xn = mol fraction of the nth substance listed
Details: 101 kPa, Liquid; for electrical conductivity: Direct current cell with electrodes; for viscosity: Falling or rolling sphere viscometry; for mass density: Vibrating tube method

CCCC[P+](CCCC)(CCCC)CCCN.C[C@H](N)C(=O)[O-] [(3-aminopropyl)tributylphosphonium L-alaninate] + O
Details	electrical conductivity [S/m]	mass density [kg/m3]	viscosity [mPa·s]
298.15 K, x2 = 0	0.0141 ± 0.00028	986.75 ± 5.3	804.88 ± 79
298.15 K, x2 = 0.25	0.0244 ± 0.00049	988.47 ± 3.3	597.85 ± 53
298.15 K, x2 = 0.5	0.0337 ± 0.00067	991.4 ± 1.9	429.73 ± 34
298.15 K, x2 = 0.75	0.0647 ± 0.0013	999.98 ± 0.84	208.66 ± 13
303.15 K, x2 = 0	0.0209 ± 0.00042	983.72 ± 5.2	561.4 ± 50
303.15 K, x2 = 0.25	0.032 ± 0.00064	985.39 ± 3.3	417.93 ± 33
303.15 K, x2 = 0.5	0.0439 ± 0.00088	988.27 ± 1.8	304.2 ± 22
303.15 K, x2 = 0.75	0.0859 ± 0.0017	996.76 ± 0.83	150.37 ± 8.2
313.15 K, x2 = 0	0.032 ± 0.00064	977.65 ± 5.2	291.07 ± 21
313.15 K, x2 = 0.25	0.0487 ± 0.00097	979.18 ± 3.3	222.26 ± 15
313.15 K, x2 = 0.5	0.0703 ± 0.0014	982.01 ± 1.8	163.31 ± 9.4
313.15 K, x2 = 0.75	0.134 ± 0.0027	990.22 ± 0.83	83.45 ± 3.8
323.15 K, x2 = 0	0.0464 ± 0.00093	971.62 ± 5.1	164.61 ± 10
323.15 K, x2 = 0.25	0.0727 ± 0.0015	973.04 ± 3.2	127.07 ± 6.9
323.15 K, x2 = 0.5	0.105 ± 0.0021	975.81 ± 1.8	95.01 ± 4.6
323.15 K, x2 = 0.75	0.195 ± 0.0039	983.57 ± 0.82	50.38 ± 2.1
333.15 K, x2 = 0	0.0649 ± 0.0013	965.71 ± 5	106.7 ± 5.7
333.15 K, x2 = 0.25	0.101 ± 0.002	966.97 ± 3.2	78.92 ± 3.8
333.15 K, x2 = 0.5	0.147 ± 0.0029	969.57 ± 1.8	59.3 ± 2.6
333.15 K, x2 = 0.75	0.265 ± 0.0053	976.99 ± 0.81	32.59 ± 1.4
343.15 K, x2 = 0	0.0884 ± 0.0018	959.97 ± 5	65.96 ± 3.3
343.15 K, x2 = 0.25	0.142 ± 0.0028	960.89 ± 3.1	53.07 ± 2.4
343.15 K, x2 = 0.5	0.193 ± 0.0039	963.3 ± 1.8	39.29 ± 1.8
343.15 K, x2 = 0.75	0.334 ± 0.0067	970.15 ± 0.8	22.27 ± 0.95

CC(C)C[C@H](N)C(=O)[O-].CCCC[P+](CCCC)(CCCC)CCCN [(3-aminopropyl)tributylphosphonium L-leucinate] + O
Details	electrical conductivity [S/m]	mass density [kg/m3]	viscosity [mPa·s]
298.15 K, x2 = 0	0.008 ± 0.00016	971.86 ± 5.1	1227.9 ± 140
298.15 K, x2 = 0.25	0.0114 ± 0.00023	973.97 ± 3.2	920.24 ± 93
298.15 K, x2 = 0.5	0.0173 ± 0.00035	978.04 ± 1.8	599.52 ± 53
298.15 K, x2 = 0.75	0.0395 ± 0.00079	987.11 ± 0.82	244.81 ± 16
303.15 K, x2 = 0	0.0108 ± 0.00022	968.8 ± 5.1	855.26 ± 85
303.15 K, x2 = 0.25	0.0154 ± 0.00031	970.91 ± 3.2	629.98 ± 57
303.15 K, x2 = 0.5	0.0232 ± 0.00046	974.9 ± 1.8	407.91 ± 32
303.15 K, x2 = 0.75	0.0515 ± 0.001	983.89 ± 0.82	174.05 ± 10
313.15 K, x2 = 0	0.0185 ± 0.00037	962.68 ± 5	417.9 ± 34
313.15 K, x2 = 0.25	0.0254 ± 0.00051	964.75 ± 3.2	308.75 ± 23
313.15 K, x2 = 0.5	0.0362 ± 0.00072	968.61 ± 1.8	209.07 ± 13
313.15 K, x2 = 0.75	0.0795 ± 0.0016	977.44 ± 0.81	94.21 ± 4.5
323.15 K, x2 = 0	0.0291 ± 0.00058	956.54 ± 5	224.29 ± 15
323.15 K, x2 = 0.25	0.0379 ± 0.00076	958.56 ± 3.1	169.8 ± 10
323.15 K, x2 = 0.5	0.0515 ± 0.001	962.52 ± 1.8	116.62 ± 6
323.15 K, x2 = 0.75	0.116 ± 0.0023	970.88 ± 0.8	55.71 ± 2.4
333.15 K, x2 = 0	0.0414 ± 0.00083	950.54 ± 4.9	130.46 ± 7.4
333.15 K, x2 = 0.25	0.0542 ± 0.0011	952.54 ± 3.1	101.73 ± 5.2
333.15 K, x2 = 0.5	0.0735 ± 0.0015	956.26 ± 1.7	72.42 ± 3.3
333.15 K, x2 = 0.75	0.161 ± 0.0032	964.27 ± 0.8	35.35 ± 1.5
343.15 K, x2 = 0	0.0605 ± 0.0012	944.58 ± 4.8	81.01 ± 4.1
343.15 K, x2 = 0.25	0.0761 ± 0.0015	946.54 ± 3.1	65.08 ± 3.1
343.15 K, x2 = 0.5	0.104 ± 0.0021	949.99 ± 1.7	47.47 ± 2.1
343.15 K, x2 = 0.75	0.214 ± 0.0043	957.61 ± 0.79	23.97 ± 1
